Data on four molecules can be found in patent publication US9018248B2, “Fatty acid derivatives of catechins and methods of their use” (Genesis Group Inc., priority 2010, dated 2015).

Assay [1] is described as follows: DPPH radical scavenging capacity by EPR. The conditions noted are these: test compounds 25 μM in ethanol, EPR after 1 min. The procedure:
An ORAC (Oxygen Radical Absorbance Capacity) assay was carried out using a Fluostar Optima plate reader (BMG Labtech, Durham, N.C.) equipped with an incubator and two injector pumps. A modified method for lipophilic antioxidants was followed, in which randomly methylated cyclodextrin (RMCD) was used as water solubility enhancer, as described by Huang et al, J. Agric. Food Chem., 2002, 50, 1815-1821. Trolox standards (6.25-50 μM) and samples (0.25 μM) were dissolved in acetone/water (1:1, v/v) containing 7% RMCD. Fluorescein and […] [2,2′-azobis(2-aminopropane)dihydrochloride] were used as the probe and radical generator, respectively. Twenty microliters of trolox standard or test compound solutions (7% RMCD used as a control) were added into each well of a 96-well black microplate, followed by addition of fluorescein. The plate was incubated at 37° C. for 15 min and then AAPH in buffer was injected into the wells. The conditions used were as follows: 0.3 s position delay, 8 s orbital shaking before each cycle with 4 mm width, 210 s cycle time, and 25 cycles. Fluorescence was measured at an excitation wavelength of 485 nm and emission of 520 nm. A standard curve was plotted and ORAC values for test compounds were obtained as mol of trolox equivalents (TE) per mol of test compound. (3b) Reducing Power The reducing power of EGCG and its derivatives (compounds 1a-1c) was determined according to Oyaizu (1986). One milliliter of test compounds (1 mM in 95% ethanol) was mixed with 2.5 ml of phosphate buffer solution (PBS, 0.2 M, pH 6.6) and 2.5 ml of a 1% solution of potassium ferricyanide, K3Fe(CN)6. The mixture was incubated at 50° C. for 20 min. […] The content was mixed well and the absorbance was recorded at 700 nm. Higher absorbance of the reaction mixture indicates greater reducing power. […] (3c) Metal Chelation The metal chelation capacity was measured following a procedure by Decker E. A. et al., J. Agric. […] The absorbance was measured afterwards at 562 nm. A blank without ferrozine was run for each compound, since the antioxidant-Fe^2+ complex gives a colour that might interfere with the absorbance reading. Metal chelation capacity was calculated using the following equation: % chelation=[1−(Abs.sample−Abs.blank)/Abs.control]×100 where, control was devoid of test compounds, while blank contained no ferrozine. (3d) DPPH Antioxidant activity of the lipophilic EGCG derivatives was ALSO evaluated as DPPH (1,1-diphenyl-2-picrylhydrazyl) radical scavenging capacity using EGCG as the reference. DPPH scavenging capacity of test compounds was determined by EPR (electron paramagnetic resonance) according to Madhujith and Shahidi (16) with slight modifications. […] The spectrum was recorded after 1 min. […]

Assay [2] can be described thus: Inhibition against UV-induced liposome oxidation. Particulars: UV 254 nm, 45 min. The procedure:
To prepare liposome MLV, 10 mg of egg yolk PC were dissolved in a small amount of chloroform in a round bottom flask and the solvent was removed using a rotary evaporator followed by nitrogen flush. The thin film on the inner surface of the flask was suspended in 10 ml of PBS (10 mM, pH7.4, 150 mM NaCl) by vortex and sonication, and the emulsion was then repeatedly frozen and thawed for 4 times. The liposomal MLV obtained were diluted by 90 ml of PBS, and an aliquot (750 μL) was transferred into an Eppendorf tube containing 10 μL of test compounds dissolved in ethanol and 240 μL of PBS. The content was mixed well and incubated at 37° C. for 15 min. After incubation, the mixture was exposed to UV irradiation (254 nm) for 45 min. The oxidation was detected by measuring conjugated dienes (CD) spectrophotometically at 234 nm against a blank without liposome (test compounds+PBS). Conjugated diene values were calculated as follows using blank-corrected absorbances. CD(mol/g of PC)=Abs./εLC, where ε is the absorptivity constant (29500 M^−1cm^−1), L is the length of the cuvette (1 cm) and C is the final concentration of PC (g/L). […] Discussion

The subject of assay [3] is Human LDL. As to the kind of experiment: Inhibition of copper-induced LDL-cholesterol oxidation. Particulars: CuSO4-induced, 37° C., 22 hours. The method, then: Human LDL solution was dialyzed overnight in PBS (10 mM, 0.15M NaCl, pH 7.4) at 4° C. under nitrogen blanket prior to the test. Sample solutions were prepared by dissolving the test compounds in ethanol at concentration of 500 μM. Ten microliters of sample solutions were transferred into a set of Eppendorf tubes, and the solvent was evaporated to dryness under a nitrogen stream. To each tube 0.1 ml of PBS was added, followed by vortexing for 1 min. An aliquot (0.8 ml) of the dialyzed and diluted LDL solution (0.125 mg/ml) was added to each tube, and the contents were mixed well and incubated at 37° C. for 15 min. The reaction was initiated by adding 0.1 ml of CuSO4 (20 μM, previously incubated). A blank containing only sample without LDL or CuSO4 was prepared for each test compound. After incubation of the reaction mixture at 37° C. for 22 hours, the conjugated dienes formed as a result of oxidation were measured spectrophotometrically at 234 nm. […] All absorbances for samples were blank-corrected. Discussion

`CCC=CCC=CCC=CCC=CCC=CCCCC(=O)Oc1cc(C(=O)OC2Cc3c(O)cc(O)cc3OC2c2cc(OC(=O)CCCC=CCC=CCC=CCC=CCC=CCC)c(O)c(OC(=O)CCCC=CCC=CCC=CCC=CCC=CCC)c2)cc(OC(=O)CCCC=CCC=CCC=CCC=CCC=CCC)c1O` (stereo not drawn) [Compound 1b] returned a DPPH scavenging in assay [1] of 4.66 mmol trolox eq./mol. Further, the “% inhibition of UV-induced liposome oxidation (conjugated dienes)” value (from here on “% inhibition”) in assay [2] was 3.47%. Besides, the “Inhibition of LDL-cholesterol oxidation (conjugated diene formation)” value (“Inhibition of LDL-cholesterol oxidation” for short) in assay [3] amounted to 11.80%.

With `CCC=CCC=CCC=CCC=CCC=CCC=CCCC(=O)Oc1cc(C(=O)OC2Cc3c(O)cc(O)cc3OC2c2cc(OC(=O)CCC=CCC=CCC=CCC=CCC=CCC=CCC)c(O)c(OC(=O)CCC=CCC=CCC=CCC=CCC=CCC=CCC)c2)cc(OC(=O)CCC=CCC=CCC=CCC=CCC=CCC=CCC)c1O` (stereo not drawn) [Compound 1c], the DPPH scavenging in assay [1] is 5.09 mmol trolox eq./mol. Also, the “% inhibition” value in assay [2] is recorded as 16.22%. The “Inhibition of LDL-cholesterol oxidation” value in assay [3] was 8.18%.

In the case of `CCCCCCCCCCCCCCCCCC(=O)Oc1cc(C(=O)OC2Cc3c(O)cc(O)cc3OC2c2cc(OC(=O)CCCCCCCCCCCCCCCCC)c(O)c(OC(=O)CCCCCCCCCCCCCCCCC)c2)cc(OC(=O)CCCCCCCCCCCCCCCCC)c1O` (stereo not drawn) [Compound 1a, EGCG stearate], the DPPH scavenging in assay [1] is given as 5.85 mmol trolox eq./mol. For the same molecule, in assay [2], the “% inhibition” value came to 47.59%. For the same molecule, in assay [3], the “Inhibition of LDL-cholesterol oxidation” value was determined as 16.33%.

`O=C(O[C@@H]1Cc2c(O)cc(O)cc2O[C@@H]1c1cc(O)c(O)c(O)c1)c1cc(O)c(O)c(O)c1` [EGCG, Epigallocatechin gallate, reference compound]: the DPPH scavenging in assay [1] was determined as 3.13 mmol trolox eq./mol. The “% inhibition” value in assay [2] is reported as 9.53%. Besides, the “Inhibition of LDL-cholesterol oxidation” value in assay [3] was determined as 6.53%.
